# Source: patent US8475862B2, “Isothiocyanate preservatives and methods of their use” (The Procter & Gamble Company, priority 2003, dated 2013)
# Tests used:
# [1] = tested on: four lactic acid spoilage bacteria (Lactobacillus fructivorans, L. fermentum, L. plantar and L. hilgardii); assay: Ketchup spoilage challenge, plate counts of inoculated lactic acid bacteria; format: cell-based; settings: 250 CFU/gm inoculum, stored at 22° C.
# Protocol: (§1) Ketchup is an acid food with a pH of 3.5-3.8 that can be cold filled at 100±20° F. in PET bottles. The product is vulnerable during filling operation at the filler, susceptible for recontamination by adventitious spoilage microorganisms such as lactic acid bacteria (LAB) and acid and preservative tolerant yeasts (APRY).
# (§2) All natural tomato ketchup products were made, a first sample with sodium (ANK) and a second sample with reduced sodium (ANK-RS). Each sample was split, and to each about 150 ppm and 300 ppm 4-hydroxybenzyl isothiocyanate was added. The samples were further split (for a total of eight samples) and inoculated as follows. Microorganisms were inoculated into four samples with a cocktail consisting of four separate lactic acid spoilage bacteria (250 CFU/gm) such as Lactobacillus fructivorans, L. fermentum, L. plantar and L. hilgardii. The four remaining samples were inoculated with Zygosaccharomyces bailii—(150-200 CFU/gm) previously isolated from a ketchup spoilage incident.
# (§3) A summary of the samples is as follows: • 1: ANK—150 ppm 4HBITC—inoculated with four lactic acid bacteria • 2: ANK—150 ppm 4HBITC—inoculated with Z. bailii • 3: ANK—300 ppm 4HBITC—inoculated with four lactic acid bacteria • 4: ANK—300 ppm 4HBITC—inoculated with Z. bailii • 5: ANK-RS—150 ppm 4HBITC—inoculated with four lactic acid bacteria • 6: ANK-RS—150 ppm 4HBITC—inoculated with Z. bailii • 7: ANK-RS—300 ppm 4HBITC—inoculated with four lactic acid bacteria • 8: ANK-RS—300 ppm 4HBITC—inoculated with Z. bailii
# (§4) The inoculated ketchup samples were stored at 22° C. […] The lactic acid bacteria and yeasts counts were performed as described in FDA BAM manual. The plate counts were then used to identify the degree of microbial kill or stasis in the inoculated product. […] At 150 ppm, the declining trend was gradual taking 336 hours to non-detectable level for both ANK and ANK-RS. Un-inoculated controls grew to level of 1000-1500 CFU/gm. In the Z. bailii inoculated samples, counts were reduced to non-detectable level at 96 hours, both with and without 4-hydroxybenzyl isothiocyanate. However, there was no regrowth in the samples with 4-hydroxybenzyl isothiocyanate up to 336 hours (150 and 300 ppm). Regrowth was noticed around 96-108 hours ending at 1×10^6 CFU/gm in control samples without 4-hydroxybenzyl isothiocyanate.
# [2] = Moisture sensitivity test: isothiocyanate suspended in aqueous phosphate buffer, level measured by supercritical fluid chromatography; format: physicochemical; settings: white mustard essential oil suspended in aqueous phosphate buffer, pH about 3.6, about 20-23° C.
# Protocol: As used herein, the term “moisture-sensitive” means that the isothiocyanate compound degrades in the presence of water. This degradation proceeds via a hydrolysis reaction, thereby leading to a reduction in level of the active isothiocyanate antimicrobial agent with time of storage in the presence of water. The method for determining moisture sensitivity is set forth in the Test Method section below. […]
# These solutions are analyzed by supercritical fluid chromatography using the method described by Buskov, S. et al., “Supercritical fluid chromatography as a method of analysis for the determination of 4-hydroxybenzylglucosinolate degradation products,” Journal of Biochemical and Biophysical Methods, Vol. 43, pp 157-174 (2000) with the following modifications. […] The eluate is detected at 226 and 252 nm. […]
# Moisture-sensitive isothiocyanate compounds are identified by suspending the isothiocyanate containing material in an aqueous phosphate buffer (pH of about 3.6) at room temperature. […] The extraction procedure is repeated after 24 hours and the level of residual isothiocyanate compound is measured by supercritical fluid chromatography. […]
# [3] = tested on: Zygosaccharomyces bailii; assay: Ketchup spoilage challenge, plate counts of inoculated yeast; format: cell-based; settings: 22° C.; for regrowth of Z. bailii up to 336 hours: controls regrew around 96-108 hours
# Protocol: as §1, §2, §3
# as §4, with “However, there was no regrowth in the samples with 4-hydroxybenzyl isothiocyanate up to 336 hours (150 and 300 ppm). Regrowth was noticed around 96-108 hours ending at 1×10^6 CFU/gm in control samples without 4-hydroxybenzyl isothiocyanate.” left out
structure (smiles),measurement,setting,value
Oc1ccc(CN=C=S)cc1 [4-hydroxybenzyl isothiocyanate],time until lactic acid bacteria counts reduced to non-detectable level,"[1]; ANK ketchup, 150 ppm",336 h
same,time until lactic acid bacteria counts reduced to non-detectable level,"[1]; ANK ketchup, 300 ppm",≤ 96 h
same,time until lactic acid bacteria counts reduced to non-detectable level,"[1]; ANK-RS (reduced sodium) ketchup, 150 ppm",336 h
same,time until lactic acid bacteria counts reduced to non-detectable level,"[1]; ANK-RS (reduced sodium) ketchup, 300 ppm",≤ 168 h
same,percent reduction in level of 4-hydroxybenzyl isothiocyanate after 24 hours,[2],about 72%
same,time at which Z. bailii counts reduced to non-detectable level,"[3]; 150-200 CFU/gm inoculum, same result with and without 4-hydroxybenzyl isothiocyanate",96 h
same,regrowth of Z. bailii up to 336 hours,[3]; 150 ppm,no regrowth
same,regrowth of Z. bailii up to 336 hours,[3]; 300 ppm,no regrowth
